Where a name gives a salt, the structure may show the parent alone.
How the values were obtained:
[1] = Competitive slurry conversion (thermodynamic stability) of Form 1 and Form 3; type: physicochemical; conditions: one week slurry
Experimental: Approximately 50 mg of each solid form were solid dosed in a standard HPLC vial followed by solvent addition. The competitive slurry experiments were performed in ethanol/water mixtures and methanol/water mixtures within a water activity range of 0-0.2. Approximately 50 mg of each pracinostat dihydrochloride solid form 2.5 hydrate and monohydrate were solid dosed in 1.8 mL HPLC vials. Aliquots of 100 μL of the different water mixtures were added until about half of the amount of solid was in solution. […] Upon completion of the equilibration time, the solids were separated from the liquids by centrifugation. The solids were dried under ambient conditions (ambient) and dried under vacuum (vacuum) before HT-XRPD analysis. All solid samples were exposed to accelerated gaining conditions (40° C. and 70% RH) for two days (AAC). The water content in the liquid phase was determined Karl Fischer analysis.

[2] = Desolvation studies: equilibration at 125° C. in high boiling point solvents; type: physicochemical; conditions: two days; for Form in Ambient AAC: then accelerated aging conditions
Experimental: Using solvent equilibration of hydrates in high boiling point solvents has been reported as a method to obtaining desolvated forms. […] The experiments were started with approximately 50 mg of material and 100 μL of solvent. After equilibration, the solids were isolated from the solutions by centrifugation. The solids were allowed to dry under ambient conditions before HT-XRPD analysis was performed. The wet solids were analyzed by HT-XRPD immediately to avoid hydration under ambient conditions or under vacuum.

CCCCc1nc2cc(/C=C/C(=O)NO)ccc2n1CCN(CC)CC [Form 1, 3-[2-butyl-1-(2-diethylamino-ethyl)-1H-benzoimidazol-5-yl]-N-hydroxy-acrylamide dihydrochloride monohydrate]
water content of the solvent system at which the form is the most stable / obtained form ([1]; ethanol/water, 5° C. (below ambient), dihydrochloride monohydrate): below 2% | water content of the solvent system at which the form is the most stable form ([1]; ethanol/water, 50° C. (elevated temperatures), dihydrochloride monohydrate): 2-4% | water content of the solvent system at which the form is the most stable form ([1]; methanol/water, 5° C.): below 6% | Form in Ambient ([2]; Anisole): Mono | Form in Ambient AAC ([2]; Anisole): 2.5 | Form in Ambient ([2]; Cumene): Mono | Form in Ambient AAC ([2]; Cumene, dihydrochloride monohydrate): 2.5 | Form in Ambient ([2]; N-Methyl-2-pyrrolidone, dihydrochloride monohydrate): No solids | Form in Ambient ([2]; p-Xylene): Mono | Form in Ambient AAC ([2]; p-Xylene): 2.5

From patent publication US10626092B2, “Polymorphic forms of 3-[(2-butyl-1-(2-diethylamino-ethyl)-1H-benzoimidazol-5-yl]-N-hydroxy-acrylamide and uses thereof” (MEI PHARMA, INC., priority 2016, dated 2020)
